These results are taken from PubChem BioAssay (NCI).

The structures appear in SMILES notation. Values joined by “and” are separate entries in the source; they are usually repeats but may differ in a detail not shown here. Equal values may be shown once.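 Five compound concentrations were applied to cells in 96-well plates for 48 hours; endpoints were derived by simple linear interpolation of the resulting dose-response curve. Abbreviation: GI50, concentration required for 50% inhibition of growth. TGI: total growth inhibition.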

Assay in all cases: growth of human tumour cells (NCI), 48 h
Assay [1] relates to BT-549 breast.
Assay [2] deals with HS 578T breast.
Assay [3] deals with K-562 leukemia.
In assay [4] the test system is MDA-N.
The test system of assay [5] is NCI-H23 lung.
In assay [6] the test system is NCI/ADR-RES ovarian.
In assay [7] the test system is OVCAR-3 ovarian.
Assay [8] relates to SF-295 CNS.
Assay [9] concerns SF-539 CNS.
In assay [10] the test system is T-47D breast.

As to `C[C@]12CCC3C4=C(CCC3C1CCC2=O)C(=O)[C@H]1O[C@H]1C4=O` (some centres not stated), the TGI in assay [1] is 4.83 µM; in assay [2] it was greater than 30.5 µM; in assay [3] it was 6.87 µM; in assay [4], 19.4 µM; in [5], 8.4 µM; in [6], 17.3 µM. In addition, the TGI in assay [7] came out at 3.15 µM; in assay [8], 29.8 µM; in [9], 5.38 µM; in assay [10], 2.78 µM.
On to `Cc1ccc(-c2cc(-c3ccco3)c(C#N)c(=S)n2C2OC(CO)C(O)C(O)C2O)cc1` (configuration not stated), for which the GI50 in [1] was 18.2 µM and 57.3 µM; in assay [2], 14.8 µM and 33.2 µM; in [5], 19.7 µM and 51.9 µM; in [6], 33.8 µM and > 100 µM; in [8] it was 11.8 µM and 28.6 µM; in assay [9] it was 11.5 µM and 37.2 µM. In [10], the GI50 is 23.6 µM and 53 µM. Also, the TGI in [1] was 78.5 µM and > 100 µM; in [2], greater than 100 µM; in [3], greater than 100 µM; in [4] it was greater than 100 µM; in assay [5] it was 90.4 µM and > 100 µM; in assay [6], greater than 100 µM. For the same molecule, the TGI in assay [7] is 55.9 µM and 90.7 µM; in [8], 31.3 µM and > 100 µM; in assay [9], 28 µM and > 100 µM; in assay [10] it was 84.9 µM and > 100 µM.
For `COc1nncc2[nH]c(-c3ccccc3)cc12`, the TGI in assay [1], in assay [2], in assay [3], in assay [4], in assay [5] and in assay [6] was greater than 100 µM in each case. The TGI in assay [7], in assay [8], in assay [9] and in [10] was greater than 100 µM each time.
For `CN(C)CCNS(=O)(=O)c1ccc(N)cc1`, the TGI in [1], in assay [2], in assay [3], in assay [4], in assay [5] and in [6] was greater than 100 µM each time. The TGI in assay [7] is 31 µM; in [8] it was greater than 100 µM; in [9] it was greater than 100 µM; in assay [10], greater than 100 µM.
Turning to `Cc1ccc(N(Cc2ccccc2)Cc2ccccc2)cc1`, the TGI in [1], in assay [2], in assay [3], in assay [4], in [5] and in assay [6] was greater than 100 µM throughout. For the same molecule, the TGI in assay [7], in assay [8], in assay [9] and in assay [10] was greater than 100 µM in each case.
Take `Cc1ccccc1OC(C)C(=O)NN1C(=O)CSC1c1ccccc1` (configuration not stated): the TGI in [1], in [2], in assay [3], in [4], in [5] and in assay [6] was greater than 100 µM each time. The TGI in [7], in assay [8], in assay [9] and in assay [10] was greater than 100 µM in each case.
In the case of `CCOC(=O)N1CCN(Cc2cc(=O)n3ccc(C)cc3n2)CC1`, the TGI in [1], in assay [2], in [3], in assay [4], in assay [5] and in assay [6] was greater than 100 µM throughout. The TGI in assay [7], in assay [8], in [9] and in assay [10] was greater than 100 µM in each case.
On to `NS(=O)(=O)c1nnc(NC(=O)Nc2ccc(Cl)c(Cl)c2)s1`, for which the TGI in [1] was 52.2 µM; in [2], 75.9 µM; in assay [3] it was greater than 100 µM; in [4] it was 44.8 µM; in assay [5], 39.4 µM; in assay [6], 55.7 µM. The TGI in [7] was greater than 100 µM; in [8] it was greater than 100 µM; in [9] it was 34.1 µM; in [10], 55.3 µM.
